Measurements taken from ChEMBL document CHEMBL1201862, “PubChem BioAssay data set” (2004).
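A five-concentration, 48-hour dose response in 96-well plates underlies each endpoint, interpolated linearly between surrounding concentrations. Here, GI50 denotes the concentration required for 50% inhibition of growth.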 The source made the active and inactive calls. Rule as the data show it: active = GI50 up to about 1.1 µM and inactive = higher.

How the values were obtained:
Assay in all cases: DTP human tumour cell line panel, 48 h
SNB-19 = test system: SNB-19
Malme-3M = test system: Malme-3M
NCI-H23 = test system: NCI-H23
MOLT-4 = test system: MOLT-4
CCRF-CEM = test system: CCRF-CEM
HCC 2998 = test system: HCC 2998
786-0 = test system: 786-0
A549 = test system: A549
HL-60 = test system: HL-60
NCI-H460 = test system: NCI-H460
OVCAR-3 = test system: OVCAR-3
MDA-MB-231 = test system: MDA-MB-231
HT-29 = test system: HT-29
UO-31 = test system: UO-31
KM12 = test system: KM12
SK-OV-3 = test system: SK-OV-3
RXF 393 = test system: RXF 393
TK-10 = test system: TK-10
OVCAR-4 = test system: OVCAR-4
LOX IMVI = test system: LOX IMVI

Measured: GI50

Cc1ncc([N+](=O)[O-])n1CCNC(=O)CCCCCn1ccnc1[N+](=O)[O-]
inactive: SNB-19 > 100 µM | Malme-3M > 100 µM | NCI-H23 > 100 µM | MOLT-4 > 100 µM | CCRF-CEM > 100 µM | HCC 2998 > 100 µM | 786-0 > 100 µM | A549 > 100 µM | HL-60 > 100 µM | NCI-H460 > 100 µM | OVCAR-3 > 100 µM | MDA-MB-231 > 100 µM | HT-29 > 100 µM | UO-31 > 100 µM | KM12 > 100 µM | SK-OV-3 > 100 µM

COc1cccc(CC(C)NCC(O)c2ccc(O)c(O)c2)c1 (stereo not given)
inactive: SNB-19 32.3 µM | Malme-3M 43.5 µM | NCI-H23 33.7 µM | RXF 393 > 100 µM | MOLT-4 14 µM | CCRF-CEM 21 µM | 786-0 37.8 µM | TK-10 25.6 µM | A549 57 µM | NCI-H460 51.6 µM | OVCAR-4 18.5 µM | OVCAR-3 26.6 µM | LOX IMVI 43.3 µM | MDA-MB-231 10.8 µM | HT-29 > 100 µM | UO-31 39.3 µM | KM12 55.5 µM | SK-OV-3 16.6 µM

O=C(CCCCCCCCC(=O)OCC1OC(n2cnc3c(=O)[nH]cnc32)C(O)C1O)OCC1OC(n2cnc3c(=O)[nH]cnc32)C(O)C1O (stereo not given)
inactive: SNB-19 > 100 µM | Malme-3M > 100 µM | NCI-H23 > 100 µM | RXF 393 > 100 µM | MOLT-4 > 100 µM | CCRF-CEM > 100 µM | HCC 2998 > 100 µM | 786-0 > 100 µM | TK-10 > 100 µM | A549 > 100 µM | HL-60 > 100 µM | NCI-H460 > 100 µM | OVCAR-4 > 100 µM | OVCAR-3 > 100 µM | LOX IMVI > 100 µM | HT-29 > 100 µM | UO-31 > 100 µM | KM12 > 100 µM | SK-OV-3 > 100 µM

CC(=O)OC1C(Oc2c(C)cc3c(c2O)[C@@H](C)CC[C@@H]3[C@@H](C)CCC=C(C)C)OCC(O)C1O (stereo not given in full)
inactive: SNB-19 19.6 µM | NCI-H23 17.9 µM | MOLT-4 22.6 µM | CCRF-CEM 22.8 µM | 786-0 18.4 µM | A549 14.8 µM | HL-60 21.4 µM | NCI-H460 16.9 µM | OVCAR-3 15.7 µM | LOX IMVI 18.2 µM | MDA-MB-231 19.8 µM | HT-29 14.4 µM | UO-31 17.3 µM | KM12 15.9 µM | SK-OV-3 19.3 µM

CN(Cc1cccc2ccsc12)/N=C\c1ccc(Cl)cc1
inactive: SNB-19 > 100 µM | Malme-3M > 100 µM | NCI-H23 28.4 µM | RXF 393 > 100 µM | MOLT-4 25.5 µM | CCRF-CEM 31.3 µM | HCC 2998 49.3 µM | 786-0 > 100 µM | TK-10 > 100 µM | A549 30.4 µM | NCI-H460 > 100 µM | OVCAR-4 46.1 µM | OVCAR-3 10.6 µM | LOX IMVI > 100 µM | MDA-MB-231 > 100 µM | HT-29 26.7 µM | UO-31 78.3 µM | KM12 58.5 µM | SK-OV-3 > 100 µM

COc1cc2c(cc1OC)CCc1cc(OC)c(OC)cc1CC2
inactive: SNB-19 > 100 µM | Malme-3M > 100 µM | NCI-H23 > 100 µM | MOLT-4 > 100 µM | CCRF-CEM > 100 µM | HCC 2998 > 100 µM | 786-0 > 100 µM | TK-10 > 100 µM | A549 > 100 µM | NCI-H460 > 100 µM | OVCAR-4 > 100 µM | OVCAR-3 > 100 µM | LOX IMVI > 100 µM | MDA-MB-231 > 100 µM | HT-29 > 100 µM | UO-31 > 100 µM | KM12 > 100 µM | SK-OV-3 > 100 µM

CCON1CC(C(=O)OC)=C(O)C1=O
inactive: SNB-19 > 100 µM | Malme-3M > 100 µM | NCI-H23 > 100 µM | RXF 393 > 100 µM | MOLT-4 > 100 µM | HCC 2998 > 100 µM | 786-0 > 100 µM | TK-10 > 100 µM | A549 > 100 µM | NCI-H460 > 100 µM | OVCAR-4 > 100 µM | OVCAR-3 > 100 µM | MDA-MB-231 > 100 µM | HT-29 > 100 µM | UO-31 > 100 µM | KM12 > 100 µM | SK-OV-3 > 100 µM

CN1N(c2ccccc2)C(=O)C2=NC=C(C#N)C(=N)C21C (stereo not given)
inactive: SNB-19 > 100 µM | Malme-3M > 100 µM | NCI-H23 > 100 µM | RXF 393 > 100 µM | MOLT-4 > 100 µM | CCRF-CEM > 100 µM | HCC 2998 > 100 µM | 786-0 > 100 µM | TK-10 > 100 µM | A549 > 100 µM | NCI-H460 > 100 µM | OVCAR-4 > 100 µM | OVCAR-3 > 100 µM | LOX IMVI > 100 µM | MDA-MB-231 > 100 µM | UO-31 > 100 µM | KM12 > 100 µM | SK-OV-3 > 100 µM
